In the Deep4Chem optical property database one finds emission maximum data, which are given here for 13 molecules.

This data set is described as follows: solvent given as SMILES.

SMILES strings stand for the structures.

As to `O=C(O)CCCOc1cccc(-c2c3nc(cc4ccc([nH]4)c(-c4cccc(OCCCC(=O)O)c4)c4nc(cc5ccc2[nH]5)CC4)C=C3)c1`, where the note is “in CS(C)=O”, the emission maximum was found to be 649 nm.
As for `C=CCOc1nnc(OCCC(F)(F)C(F)(F)C(F)(F)C(F)(F)C(F)(F)C(F)(F)C(F)(F)C(F)(F)F)nn1`, the emission maximum was 572 nm (in ClCCl) and 560 nm (in OCC(F)(F)F).
As to `CCC1=C(C)c2cc3c(OC)cc(OC)cc3c(=O)n2C1=O`, the emission maximum is, setting by setting: (in CC#N) 476 nm; (in CO) 510 nm; (in CS(C)=O) 485 nm; (in ClC(Cl)Cl) 469 nm.
Consider `C(=C\c1ccc(N(c2ccccc2)c2ccccc2)cc1)/c1ccccc1`, for which the emission maximum runs as follows: (in CC#N) 455 nm; (in CCCCCC) 395 nm.
`COOCc1noc(-c2ccccc2)c1Br` came in with an emission maximum (in C1CCCCC1) of 345 nm.
Where the note is “in ClC(Cl)Cl”, `N#Cc1nc(N(Cc2ccccc2)Cc2ccccc2)c(C#N)nc1N(Cc1ccccc1)Cc1ccccc1` had an emission maximum of 588 nm.
Turning to `C#CCn1c2ccccc2c2cc(/C=C/C3=[N+]4C(=C(c5ccc(I)cc5)c5c(C)cc(/C=C/c6ccc7c(c6)c6ccccc6n7CC#C)n5[B-]4(F)F)C(C)=C3)ccc21`, the emission maximum is 688 nm (in CC#N), 703 nm (in CS(C)=O) and 691 nm (in ClC(Cl)Cl).
With `CCCCCCCCN1C(=O)c2ccc3c4c(-c5ccc6c7ccccc7n(-c7ccccc7)c6c5)cc5c6c(cc(-c7ccc8c9ccccc9n(-c9ccccc9)c8c7)c(c7ccc(c2c37)C1=O)c64)C(=O)N(CCCCCCCC)C5=O`, under “in ClC(Cl)Cl”, the emission maximum was determined as 644 nm.
`c1ccc2c(c1)cc(-c1cc(-c3nccs3)nc(-c3nccs3)c1)c1ccccc12` showed an emission maximum (in CC#N) of 403 nm, an emission maximum (in CCCCCC) of 361 nm, an emission maximum (in CO) of 431 nm and an emission maximum (in ClC(Cl)Cl) of 383 nm.
In the case of `Cc1cc(O)c(C(=O)/C=C/c2ccc(O)c(O)c2)c(=O)o1`, the emission maximum by setting is: (in CC#N) 518 nm; (in ClCCl) 493 nm.
In the case of `O=P1(c2ccccc2)C(c2cc(C(F)(F)F)cc(C(F)(F)F)c2)=Cc2c3ccc4cccc5ccc(c6cc(-c7ccc(N(c8ccccc8)c8ccccc8)cc7)n1c26)c3c45` (stereo unspecified), the emission maximum came to 558 nm (in C1CCCCC1); 620 nm (in C1CCOC1); 595 nm (in C1COCCO1); 645 nm (in CC#N); 635 nm (in CC(C)=O); 636 nm (in CO). In addition, the emission maximum by setting is: (in Cc1ccccc1) 586 nm; (in ClC(Cl)Cl) 603 nm; (in ClCCl) 622 nm.
For `Cc1c2oc3c(C)c(N)cc(C(=O)NC4OC(=O)C(C(C)C)N(C)C(=O)CN(C)C(=O)C5CCCN5C(=O)C(C(C)C)NC4=O)c3nc-2c(C(=O)NC2OC(=O)C(C(C)C)N(C)C(=O)CN(C)C(=O)C3CCCN3C(=O)C(C(C)C)NC2=O)c(N)c1=O` (stereo unspecified), the emission maximum reads like this: (in C1CCOC1) 608.36 nm; (in CC#N) 634.41 nm; (in CC(=O)O) 638.86 nm; (in CC(C)=O) 609.72 nm; (in CCCCO) 669.51 nm; (in CCCCOC(C)=O) 624.05 nm. The emission maximum is, setting by setting: (in CCCO) 658.62 nm; (in CCN(CC)CC) 597.77 nm; (in CCO) 669 nm; (in CCOC(C)=O) 598.75 nm; (in CN(C)C=O) 640.78 nm; (in CO) 673.84 nm. Further, the emission maximum (in CS(C)=O) worked out at 637.01 nm; the emission maximum (in Cc1ccccc1) is 613.07 nm; the emission maximum (in ClC(Cl)Cl) is on record as 620.11 nm; the emission maximum (in ClCCCl) is on record as 609.65 nm; the emission maximum (in O) was 674.17 nm; the emission maximum (in O=[N+]([O-])c1ccccc1) was determined as 623.24 nm. In addition, the emission maximum by setting is: (in c1ccccc1) 621.25 nm; (in c1ccncc1) 648.07 nm.
The molecule `CC1=CC(/C=C/c2ccc(C)cc2)=[N+]2C1=C(c1ccccc1)c1c(C)cc(/C=C/c3ccc(C)cc3)n1[B-]2(F)F` showed an emission maximum (in CC1CCCO1) of 645 nm.
